The record followed here is patent US20090069370A1, “AZACYCLYLISOQUINOLINONE AND ISOINDOLINONE DERIVATIVES AS HISTAMINE-3 ANTAGONISTS” (Wyeth, priority 2007, published 2009).

Structures can show the parent of a compound that is named as a salt. A value given as a limit tells only on which side of the number the result lay.

In general, melting point refers to the temperature of the solid-liquid transition. As for `CNC(=O)c1ccc(COc2ccc3c(c2)CCN(C2CCN(C4CCC4)CC2)C3=O)cc1` (as salt: hydrochloride) [Example 16, 4-({[2-(1-Cyclobutylpiperidin-4-yl)-1-oxo-1,2,3,4-tetrahydroisoquinolin-6-yl]oxy}methyl)-N-methylbenzamide], the melting point lay in the range of 302 to 303 °C. In turn, `C[C@@H]1CCCN1C(=O)c1ccc(-c2ccc3c(c2)CCN([C@@H]2CCN(C4CCC4)C2)C3=O)c(F)c1` (as salt: hydrochloride) [Example 76, 2-[(3R)-1-cyclobutylpyrrolidin-3-yl]-6-(2-fluoro-4-{[(2R)-2-methylpyrrolidin-1-yl]carbonyl}phenyl)-3,4-dihydroisoquinolin-1(2H)-one] showed a melting point of 239 to 241 °C. The compound `N#Cc1ccc(-c2ccc3c(c2)CN(C2CCN(C4CCCCC4)CC2)C3=O)cc1` (as salt: hydrochloride) [Example 30, 4-[2-(1-Cyclohexylpiperidin-4-yl)-1-oxo-2,3-dihydro-1H-isoindol-5-yl]benzonitrile] gave a melting point of over 300 °C. With `CC(C)N1CCC[C@@H](N2CCc3cc(-c4ccc(C(=O)N5CCCC5)cc4)ccc3C2=O)C1` (as salt: hydrochloride) [Example 72, 2-[(3R)-1-isopropylpiperidin-3-yl]-6-[4-(pyrrolidin-1-ylcarbonyl)phenyl]-3,4-dihydroisoquinolin-1(2H)-one] the figure was 274 to 275 °C; with `O=C(c1ccc(-c2ccc3c(c2)CCN([C@@H]2CCCN(C4CCC4)C2)C3=O)cc1)N1CCCC1` (as salt: hydrochloride) [Example 70, 2-[(3R)-1-cyclobutylpiperidin-3-yl]-6-[4-(pyrrolidin-1-ylcarbonyl)phenyl]-3,4-dihydroisoquinolin-1(2H)-one], 260.5 to 262 °C. On to `CNC(=O)c1ccc(Oc2ccc3c(c2)CCN(C2CCN(C4CCC4)CC2)C3=O)cc1` (as salt: hydrochloride) [Example 4, 4-{[2-(1-Cyclobutylpiperidin-4-yl)-1-oxo-1,2,3,4-tetrahydroisoquinolin-6-yl]oxy}-N-methylbenzamide], for which the melting point was over 310 °C. With `O=C(c1ccc(-c2ccc3c(c2)CCN([C@@H]2CCN(Cc4ccco4)C2)C3=O)cc1)N1CCCC1` (as salt: hydrochloride) [Example 61, 2-[(3R)-1-(furan-2-ylmethyl)pyrrolidin-3-yl]-6-[4-(pyrrolidin-1-ylcarbonyl)phenyl]-3,4-dihydroisoquinolin-1(2H)-one] the figure was 254 to 256 °C; with `O=C1c2ccc(-c3ccc(F)cc3)cc2CCN1[C@@H]1CCN(C2CCC2)C1` (as salt: hydrochloride) [Example 51, 2-[(3R)-1-cyclobutylpyrrolidin-3-yl]-6-(4-fluorophenyl)-3,4-dihydroisoquinolin-1(2H)-one], 231 to 233 °C.

In turn, `O=C(c1ccc(-c2ccc3c(c2)CCN([C@@H]2CCN(C4CCCC4)C2)C3=O)cc1)N1CCCC1` (as salt: hydrochloride) [Example 43, 2-[(3R)-1-cyclopentylpyrrolidin-3-yl]-6-[4-(pyrrolidin-1-ylcarbonyl)phenyl]-3,4-dihydroisoquinolin-1(2H)-one] came in with a melting point of over 200 °C.

`O=C(c1ccc(-c2ccc3c(c2)CCN([C@@H]2CCN(CC4CC4)C2)C3=O)cc1)N1CCCC1` (as salt: hydrochloride) [Example 58, 2-[(3R)-1-(cyclopropylmethyl)pyrrolidin-3-yl]-6-[4-(pyrrolidin-1-ylcarbonyl)phenyl]-3,4-dihydroisoquinolin-1(2H)-one] yielded a melting point of 287 to 288 °C.

`CC(C)N1CCC(N2CCc3cc(-c4ccc(C(=O)N5CCCC5)cc4)ccc3C2=O)CC1` (as salt: hydrochloride) [Example 67, 2-(1-isopropylpiperidin-4-yl)-6-[4-(pyrrolidin-1-ylcarbonyl)phenyl]-3,4-dihydroisoquinolin-1(2H)-one] registered a melting point of over 300 °C.

In the case of `CNC(=O)c1ccc(-c2ccc3c(c2)CCN([C@@H]2CCN(C4CCC4)C2)C3=O)cc1` (as salt: hydrochloride) [Example 44, 4-{2-[(3R)-1-cyclobutylpyrrolidin-3-yl]-1-oxo-1,2,3,4-tetrahydroisoquinolin-6-yl}-N-methylbenzamide], the melting point fell in the range of 263 to 265 °C. `CNC(=O)c1ccc(-c2ccc3c(c2)CCN([C@@H]2CCN(C(C)C)C2)C3=O)cc1` (as salt: hydrochloride) [Example 82]: the melting point was over 275 °C. Turning to `C[C@H]1CCCN1C(=O)c1ccc(-c2ccc3c(c2)CCN([C@@H]2CCN(C4CCC4)C2)C3=O)c(F)c1` (as salt: hydrochloride) [Example 73, 2-[(3R)-1-cyclobutylpyrrolidin-3-yl]-6-(2-fluoro-4-{[(2S)-2-methylpyrrolidin-1-yl]carbonyl}phenyl)-3,4-dihydroisoquinolin-1(2H)-one], the melting point lay in the range of 212 to 213 °C.

Compound `O=C(c1ccc(-c2ccc3c(c2)CCN(C2CCNCC2)C3=O)cc1)N1CCCC1` [Example 64, 2-(piperidin-4-yl)-6-(4-(pyrrolidine-1-carbonyl)phenyl)-3,4-dihydroisoquinolin-1(2H)-one] returned a melting point of over 273 °C.

For `N#Cc1ccc(-c2ccc3c(c2)CN(C2CCN(C4CCCC4)CC2)C3=O)cc1` (as salt: hydrochloride) [Example 29, 4-[2-(1-Cyclopentylpiperidin-4-yl)-1-oxo-2,3-dihydro-1H-isoindol-5-yl]benzonitrile], the melting point is 270 °C (dec.). Regarding `NC(=O)c1ccc(Oc2ccc3c(c2)CCN(C2CCN(C4CCC4)CC2)C3=O)cc1` (as salt: hydrochloride) [Example 3, 4-{[2-(1-cyclobutylpiperidin-4-yl)-1-oxo-1,2,3,4-tetrahydroiso-quinolin-6-yl]oxy}benzamide Hydrochloride], the melting point was in the range of 309 to 310 °C.

For the compound `CNC(=O)c1ccc(-c2ccc3c(c2)CN([C@@H]2CCN(C4CCC4)C2)C3=O)cc1` (as salt: hydrochloride) [Example 91, (R)-4-(2-(1-cyclobutylpyrrolidin-3-yl)-1-oxoisoindolin-5-yl)-N-methylbenzamide hydrochloride], the melting point lay in the range of 207 to 208 °C. With `O=C(c1cccc(-c2ccc3c(c2)CCN([C@@H]2CCN(C4CCC4)C2)C3=O)c1)N1CCCC1` (as salt: hydrochloride) [Example 52, 2-[(3R)-1-cyclobutylpyrrolidin-3-yl]-6-[3-(pyrrolidin-1-ylcarbonyl)phenyl]-3,4-dihydroisoquinolin-1(2H)-one] the figure was 203 to 205 °C.

For `O=C(NC1CC1)c1ccc(Oc2ccc3c(c2)CCN(C2CCN(C4CCC4)CC2)C3=O)cc1` (as salt: hydrochloride) [Example 7, 4-{[2-(1-Cyclobutylpiperidin-4-yl)-1-oxo-1,2,3,4-tetrahydroisoquinolin-6-yl]oxy}-N-cyclopropylbenzamide], the melting point fell in the range of 307 to 309 °C. Next, `CNC(=O)c1ccc(-c2ccc3c(c2)CCN([C@H]2CCN(C4CCC4)C2)C3=O)cc1.Cl` [Example 90, (R)-4-(2-(1-cyclobutylpyrrolidin-3-yl)-1-oxo-1,2,3,4-tetrahydro-isoquinolin-6-yl)-N-methylbenzamide hydrochloride]: 265 to 266 °C; `O=C(c1ccc(Oc2ccc3c(c2)CCN(C2CCN(C4CCC4)CC2)C3=O)cc1)N1CCCC1` (as salt: hydrochloride) [Example 12, 2-(1-Cyclobutylpiperidin-4-yl)-6-[4-(pyrrolidin-1-ylcarbonyl)phenoxy]-3,4-dihydroisoquinolin-1(2H)-one]: 253 to 255 °C; `CC(C)NC(=O)c1ccc(Oc2ccc3c(c2)CCN(C2CCN(C4CCC4)CC2)C3=O)cc1` (as salt: hydrochloride) [Example 6, 4-{[2-(1-Cyclobutylpiperidin-4-yl)-1-oxo-1,2,3,4-tetrahydroisoquinolin-6-yl]oxy}-N-isopropylbenzamide]: 309 to 311 °C. Compound `O=C(NC1CCCC1)c1ccc(Oc2ccc3c(c2)CCN(C2CCN(C4CCC4)CC2)C3=O)cc1` (as salt: hydrochloride) [Example 9, 4-{[2-(1-Cyclobutylpiperidin-4-yl)-1-oxo-1,2,3,4-tetrahydroisoquinolin-6-yl]oxy}-N-cyclopentylbenzamide] came in with a melting point of over 300 °C.

As for `CCN1CCC(N2Cc3cc(-c4ccc(C#N)cc4)ccc3C2=O)CC1` (as salt: hydrochloride) [Example 24, 4-[2-(1-Ethylpiperidin-4-yl)-1-oxo-2,3-dihydro-1H-isoindol-5-yl]benzonitrile], the melting point is over 300 °C. As to `N#Cc1ccc(-c2ccc3c(c2)CN(C2CCN(C4CCC4)CC2)C3=O)cc1` (as salt: hydrochloride) [Example 28, 4-[2-(1-Cyclobutylpiperidin-4-yl)-1-oxo-2,3-dihydro-1H-isoindol-5-yl]benzonitrile], the melting point was 320 °C (dec.).
